Measurements published in patent EP0248954B1, “Process for reducing the amount of DDT-related impurities in 1,1-bis(chlorophenyl)-2,2,2-trichloro-ethanol” (ROHM AND HAAS COMPANY, priority 1986, dated 1987).

Tests used:
Format in all cases: physicochemical
[1] = Single-stage extraction: partitioning of dicofol technical between n-heptane and 90% aqueous methanol
Protocol: A 50g sample of the desired dicofol solution was taken in a stoppered 100 ml graduated cylinder. […] They were then shaken well for two minutes. The samples were placed in an ice-water bath for 30 minutes. After the cooling period all samples were again shaken for 2 minutes. The samples were returned to the bath and allowed to equilibrate for 30 minutes. The samples were then removed from the bath and volumes recorded (Table I - Columns 2 and 3). The layers were then separated and each layer weighed (Columns 4 and 5). The separated layers were concentrated under vacuum (70°C, 1 mm Hg), weighed (columns 6 and 7) and analyzed (Table II).
In subsequent experiments, the partitioning of dicofol technical between n-heptane and 90% aqueous methanol was also evaluated at 23°C. The combined results from the 0°C and 23°C experiments are presented in Table IV where the results are expressed as distribution coefficients for dicofol and the two principal DDTr's found in dicofol technical, o,p'-DDE and p,p'-Cl-DDT. In all cases, the extractability of DDTr's exceeded that of dicofol by a significant margin.

[2] = Single-stage extraction: dicofol technical in aqueous methanols of various water content contacted with n-heptane; conditions: 50g of 33% solution of dicofol technical, 40 g n-heptane, 23°C
Protocol: The effect on distribution coefficients and selectivities of the amount of water in the methanol was determined. […] All distribution coefficients rise as the percentage of water increases. The selectivities rise initially but then begin to decrease at water levels higher than a maximum range. Importantly, if the water in the methanol is omitted, the addition of practical concentrations of dicofol technical causes the phases to coalesce.

[3] = Single-stage extraction: dicofol technical in aqueous ethanol of various concentrations partitioned with heptane; conditions: 30% dicofol technical solution, 50 grams, 40 grams heptane, 23°C
Protocol: Alternative solvent systems were evaluated. The distribution coefficients were determined by partitioning dicofol technical.
In Table VII, n-heptane was used as the extractant and different raffinate phase solvents were evaluated. In Table VIII, ethanol was used as the raffinate solvent and different extracting solvents were evaluated. In Table IX, n-heptane was used as the extractant and ethanol at different aqueous concentrations was used as the raffinate solvent. In the experiments set forth in Table IX, 30% dicofol technical solution (in the raffinate layer) was used and 50 grams of this solution was partitioned with 40 grams of the extracting solvent. In Table X, methanol was used as the raffinate solvent and different extracting solvents were evaluated. And in Table XI, using n-heptane as the extracting solvent and aqueous methanol as the raffinate solvent, the partition coefficients were determined as a function of temperature and concentration of dicofol.

[4] = dicofol technical spiked with 0.25 Wt % p,p'-DDD and separately p,p'-DDT, 50g of 33% solution in 90% aqueous methanol, 40g n-heptane, 23°C
[5] = dicofol technical spiked with 0.72 Wt % p,p'-DDD and separately p,p'-DDT, 50g of 33% solution in 90% aqueous methanol, 40g n-heptane, 23°C
[6] = dicofol technical spiked with 1.80 Wt % p,p'-DDD and separately p,p'-DDT, 50g of 33% solution in 90% aqueous methanol, 40g n-heptane, 23°C
[7] = heptane layer / raffinate layer, 50 g of dicofol solution conc. 8.4 in 90% aqueous methanol, 20 g heptane, 0 °C
[8] = heptane layer / raffinate layer, 50 g of dicofol solution conc. 10 in 90% aqueous methanol, 40 g heptane, 23 °C
[9] = heptane layer / raffinate layer, 50 g of dicofol solution conc. 16.7 in 90% aqueous methanol, 20 g heptane, 0 °C
[10] = heptane layer / raffinate layer, 50 g of dicofol solution conc. 16.7 in 90% aqueous methanol, 20 g heptane, 23 °C
[11] = heptane layer / raffinate layer, 50 g of dicofol solution conc. 20 in 90% aqueous methanol, 40 g heptane, 23 °C
[12] = heptane layer / raffinate layer, 50 g of dicofol solution conc. 30 in 90% aqueous methanol, 40 g heptane, 23 °C
[13] = heptane layer / raffinate layer, 50 g of dicofol solution conc. 33 in 90% aqueous methanol, 20 g heptane, 0 °C
[14] = heptane layer / raffinate layer, 50 g of dicofol solution conc. 40 in 90% aqueous methanol, 40 g heptane, 23 °C
[15] = heptane layer / raffinate layer, 50 g of dicofol solution conc. 50 in 90% aqueous methanol, 20 g heptane, 0 °C
[16] = heptane layer / raffinate layer, 50 g of dicofol solution conc. 50 in 90% aqueous methanol, 40 g heptane, 23 °C
[17] = ratio of DDTr D.C. to that of dicofol, dicofol solution conc. 8.4 in 90% aqueous methanol, 20 g heptane, 0 °C
[18] = ratio of DDTr D.C. to that of dicofol, dicofol solution conc. 10 in 90% aqueous methanol, 40 g heptane, 23 °C
[19] = ratio of DDTr D.C. to that of dicofol, dicofol solution conc. 16.7 in 90% aqueous methanol, 20 g heptane, 0 °C
[20] = ratio of DDTr D.C. to that of dicofol, dicofol solution conc. 16.7 in 90% aqueous methanol, 20 g heptane, 23 °C
[21] = ratio of DDTr D.C. to that of dicofol, dicofol solution conc. 20 in 90% aqueous methanol, 40 g heptane, 23 °C
[22] = ratio of DDTr D.C. to that of dicofol, dicofol solution conc. 30 in 90% aqueous methanol, 40 g heptane, 23 °C
[23] = ratio of DDTr D.C. to that of dicofol, dicofol solution conc. 33 in 90% aqueous methanol, 20 g heptane, 0 °C
[24] = ratio of DDTr D.C. to that of dicofol, dicofol solution conc. 40 in 90% aqueous methanol, 40 g heptane, 23 °C
[25] = ratio of DDTr D.C. to that of dicofol, dicofol solution conc. 50 in 90% aqueous methanol, 20 g heptane, 0 °C
[26] = ratio of DDTr D.C. to that of dicofol, dicofol solution conc. 50 in 90% aqueous methanol, 40 g heptane, 23 °C

| Compound | Distribution coefficient (D.C.) [1, 4] | Selectivity (Sel.) [1, 4] | Distribution coefficient (D.C.) [1, 5] | Selectivity (Sel.) [1, 5] | Distribution coefficient (D.C.) [1, 6] | Selectivity (Sel.) [1, 6] | Distribution coefficient (D.C.) [1, 7] | Distribution coefficient (D.C.) [1, 8] | Distribution coefficient (D.C.) [1, 9] | Distribution coefficient (D.C.) [1, 10] | Distribution coefficient (D.C.) [1, 11] | Distribution coefficient (D.C.) [1, 12] | Distribution coefficient (D.C.) [1, 13] | Distribution coefficient (D.C.) [1, 14] | Distribution coefficient (D.C.) [1, 15] | Distribution coefficient (D.C.) [1, 16] | Selectivity (Sel.) [1, 17] | Selectivity (Sel.) [1, 18] | Selectivity (Sel.) [1, 19] | Selectivity (Sel.) [1, 20] | other results |
| --- | --- | --- | --- | --- | --- | --- | --- | --- | --- | --- | --- | --- | --- | --- | --- | --- | --- | --- | --- | --- | --- |
| Clc1ccc(C(c2ccc(Cl)cc2)C(Cl)Cl)cc1 [p,p'-DDD, 1,1-bis-(4-chlorophenyl)-2,2-dichloroethane] | 0.66 | 2.1 | 0.71 | 2.1 | 0.79 | 2.2 |  |  |  |  |  |  |  |  |  |  |  |  |  |  |  |
| ClC(Cl)=C(c1ccc(Cl)cc1)c1ccccc1Cl [o,p'-DDE] | 2.4 | 7.6 | 2.4 | 7.2 | 2.4 | 6.8 | 3.6 | 3.9 | 3.2 | 3.4 | 3.5 | 2.4 | 1.8 | 2.32 | 1.3 | 1.66 | 17.3 | 12.2 | 16.1 | 10.1 | Selectivity (Sel.) [1, 21]: 11.0; Selectivity (Sel.) [1, 22]: 7.9; Selectivity (Sel.) [1, 23]: 10.5; Selectivity (Sel.) [1, 24]: 7.2; Selectivity (Sel.) [1, 25]: 7.9; Selectivity (Sel.) [1, 26]: 5.3; Distribution coefficient (D.C.) ([2]; 4 % H₂O in Aq. MeOH): 1.5; Selectivity (Sel.) ([2]; 4 % H₂O in Aq. MeOH): 5.7; Distribution coefficient (D.C.) ([2]; 8 % H₂O in Aq. MeOH): 2.2; Selectivity (Sel.) ([2]; 8 % H₂O in Aq. MeOH): 7.7; Distribution coefficient (D.C.) ([2]; 12 % H₂O in Aq. MeOH): 3.1; Selectivity (Sel.) ([2]; 12 % H₂O in Aq. MeOH): 8.3; Distribution coefficient (D.C.) ([2]; 16 % H₂O in Aq. MeOH): 3.6; Selectivity (Sel.) ([2]; 16 % H₂O in Aq. MeOH): 6.1; Distribution coefficient (D.C.) ([3]; 85% aqueous ethanol): 2.06; Selectivity (Sel.) ([3]; 85% aqueous ethanol): 2.78; Distribution coefficient (D.C.) ([3]; 87% aqueous ethanol): 1.28; Selectivity (Sel.) ([3]; 87% aqueous ethanol): 2.01; Distribution coefficient (D.C.) ([3]; 90% aqueous ethanol): 1.08; Selectivity (Sel.) ([3]; 90% aqueous ethanol): 1.42 |
| Clc1ccc(C(Cl)(c2ccc(Cl)cc2)C(Cl)(Cl)Cl)cc1 [p,p'-Cl-DDT, 1,1-bis-(4-chlorophenyl)-1,2,2,2-tetrachloroethane] | 3.7 | 11.8 | 3.8 | 11.4 | 3.8 | 10.8 | 9.1 | 7.5 | 4.4 | 4.1 | 5.3 | 4.0 | 2.6 | 2.8 | 1.5 | 2.1 | 23.3 | 23.4 | 22.4 | 12.2 | Selectivity (Sel.) [1, 21]: 16.8; Selectivity (Sel.) [1, 22]: 13.1; Selectivity (Sel.) [1, 23]: 14.9; Selectivity (Sel.) [1, 24]: 8.6; Selectivity (Sel.) [1, 25]: 9.4; Selectivity (Sel.) [1, 26]: 6.8; Distribution coefficient (D.C.) ([2]; 4 % H₂O in Aq. MeOH): 1.9; Selectivity (Sel.) ([2]; 4 % H₂O in Aq. MeOH): 7.0; Distribution coefficient (D.C.) ([2]; 8 % H₂O in Aq. MeOH): 2.9; Selectivity (Sel.) ([2]; 8 % H₂O in Aq. MeOH): 10.1; Distribution coefficient (D.C.) ([2]; 12 % H₂O in Aq. MeOH): 4.6; Selectivity (Sel.) ([2]; 12 % H₂O in Aq. MeOH): 12.2; Distribution coefficient (D.C.) ([2]; 16 % H₂O in Aq. MeOH): 6.8; Selectivity (Sel.) ([2]; 16 % H₂O in Aq. MeOH): 11.4; Distribution coefficient (D.C.) ([3]; 85% aqueous ethanol): 1.65; Selectivity (Sel.) ([3]; 85% aqueous ethanol): 2.22; Distribution coefficient (D.C.) ([3]; 87% aqueous ethanol): 1.48; Selectivity (Sel.) ([3]; 87% aqueous ethanol): 2.33; Distribution coefficient (D.C.) ([3]; 90% aqueous ethanol): 0.91; Selectivity (Sel.) ([3]; 90% aqueous ethanol): 1.20 |
| Clc1ccc(C(c2ccc(Cl)cc2)C(Cl)(Cl)Cl)cc1 [p,p'-DDT, 1,1-bis-(4-chlorophenyl)-2,2,2-trichloroethane] | 1.9 | 5.9 | 1.9 | 5.6 | 2.1 | 6.0 |  |  |  |  |  |  |  |  |  |  |  |  |  |  |  |
